Experimental data: patent US20250127843A1, “ADRENOCORTICOTROPIC HORMONE PEPTIDE COMPOSITIONS AND METHODS OF USE” (FERRING B.V., priority 2021, published 2025)
No end group written: not given here.

Assays:
[1] = Stability of the peptide in aqueous test formulations: change in impurity content by UPLC after storage; format: physicochemical; conditions: for Δ Total impurities (difference in % (w/w) of impurities from Day 0 to Day 14) / Δ impurity at retention time 1.293 min (difference in % (w/w) of impurities from Day 0 to Day 14) / Δ impurity at retention time 4.923 min (difference in % (w/w) of impurities from Day 0 to Day 14) / Δ impurity at retention time 5.821 min (difference in % (w/w) of impurities from Day 0 to Day 14) / Δ impurity at retention time 6.267 min (difference in % (w/w) of impurities from Day 0 to Day 14) / Δ impurity at retention time 7.268 min (difference in % (w/w) of impurities from Day 0 to Day 14) / Δ impurity at retention time 10.47 min (difference in % (w/w) of impurities from Day 0 to Day 14): UPLC
Description: The effect of methionine on the stability of the peptide in an aqueous composition was evaluated. Test formulations of the peptide (1 mg/ml) in aqueous acetate buffer at pH 5.5 were prepared with or without methionine (1 mg/ml).
The effect of pH on the stability of the peptide in an aqueous composition was evaluated. Test formulations of the peptide in water (1 mg/ml) were prepared at a pH of 4.5, 5.0 or 5.5 using an acetate buffer. […]

[2] = system: nuclear membranes of nerve cells of the basal forebrain, hippocampus and cerebellum; conditions: cited from earlier work
[3] = system: membranes of the basal ganglia and cerebral cortex; conditions: cited from earlier work
[4] = system: damaged cells under conditions of oxidative stress; conditions: oxidative stress caused by short-term incubation with hydrogen peroxide; cited from earlier work
[5] = system: cerebellar granule neurons; conditions: during glutamate neurotoxicity; cited from earlier work
[6] = system: Bcl-2; conditions: cited from earlier work
[7] = system: BDNF and NGF genes; conditions: cited from earlier work
[8] = system: PCNA; conditions: cited from earlier work
[9] = peptide 1 mg/ml in water, acetate buffer pH 4.5, 14 days at 60° C.
[10] = peptide 1 mg/ml in water, acetate buffer pH 5.0, 14 days at 60° C.
[11] = peptide 1 mg/ml, aqueous acetate buffer pH 5.5, 14 days at 60° C.

- stability of the peptide as a function of pH ([1]; pH 4.5, 5.0 or 5.5 acetate buffer, 14 days at 60° C.): most stable at pH 4.5
- Δ Total impurities (difference in % (w/w) of impurities from Day 0 to Day 14) [1, 9]: 2.55 % (w/w)
- Δ impurity at retention time 1.293 min (difference in % (w/w) of impurities from Day 0 to Day 14) [1, 9]: 0.3 % (w/w)
- Δ impurity at retention time 4.923 min (difference in % (w/w) of impurities from Day 0 to Day 14) [1, 9]: 1.43 % (w/w)
- Δ impurity at retention time 5.821 min (difference in % (w/w) of impurities from Day 0 to Day 14) [1, 9]: 0.28 % (w/w)
- Δ impurity at retention time 6.267 min (difference in % (w/w) of impurities from Day 0 to Day 14) [1, 9]: 0 % (w/w)
- Δ impurity at retention time 7.268 min (difference in % (w/w) of impurities from Day 0 to Day 14) [1, 9]: 0.28 % (w/w)
- Δ impurity at retention time 10.47 min (difference in % (w/w) of impurities from Day 0 to Day 14) [1, 9]: 0.1 % (w/w)
- Δ Total impurities (difference in % (w/w) of impurities from Day 0 to Day 14) [1, 10]: 4.07 % (w/w)
- Δ impurity at retention time 1.293 min (difference in % (w/w) of impurities from Day 0 to Day 14) [1, 10]: 0.55 % (w/w)
- Δ impurity at retention time 4.923 min (difference in % (w/w) of impurities from Day 0 to Day 14) [1, 10]: 2.58 % (w/w)
- Δ impurity at retention time 5.821 min (difference in % (w/w) of impurities from Day 0 to Day 14) [1, 10]: 0.12 % (w/w)
- Δ impurity at retention time 6.267 min (difference in % (w/w) of impurities from Day 0 to Day 14) [1, 10]: 0.11 % (w/w)
- Δ impurity at retention time 7.268 min (difference in % (w/w) of impurities from Day 0 to Day 14) [1, 10]: 0.28 % (w/w)
- Δ impurity at retention time 10.47 min (difference in % (w/w) of impurities from Day 0 to Day 14) [1, 10]: 0.24 % (w/w)
- Δ Total impurities (difference in % (w/w) of impurities from Day 0 to Day 14) [1, 11]: 8.49 % (w/w)
- Δ impurity at retention time 1.293 min (difference in % (w/w) of impurities from Day 0 to Day 14) [1, 11]: 1.19 % (w/w)
- Δ impurity at retention time 4.923 min (difference in % (w/w) of impurities from Day 0 to Day 14) [1, 11]: 5.58 % (w/w)
- Δ impurity at retention time 5.821 min (difference in % (w/w) of impurities from Day 0 to Day 14) [1, 11]: 0.1 % (w/w)
- Δ impurity at retention time 6.267 min (difference in % (w/w) of impurities from Day 0 to Day 14) [1, 11]: 0.27 % (w/w)
- Δ impurity at retention time 7.268 min (difference in % (w/w) of impurities from Day 0 to Day 14) [1, 11]: 0.31 % (w/w)
- Δ impurity at retention time 10.47 min (difference in % (w/w) of impurities from Day 0 to Day 14) [1, 11]: 0.84 % (w/w)
Substance: MEHFPGP [Peptide, Met-Glu-His-Phe-Pro-Gly-Pro]
- binding to nuclear membranes of nerve cells [2]: bind to the nuclear membranes of nerve cells of the basal forebrain, hippocampus and cerebellum
- specific binding to membranes [3]: specifically bind to the membranes of the basal ganglia and cerebral cortex
- number of damaged cells [4]: reduce the number of damaged cells
- survival of cerebellar granule neurons [5]: significantly increase the survival
- levels of Bcl-2 [6]: increase levels of Bcl-2
- transcription of the neurotrophin BDNF and NGF genes [7]: rapid induction of the transcription
- expression of the nuclear protein PCNA [8]: significant increase in the expression
